From patent US9562082B2, “Production of glycoproteins with low N-glycolylneuraminic acid (Neu5Gc) content” (LEK Pharmaceuticals D.D., priority 2009, dated 2017)

Test system: Recombinant CHO cells
Assay: Neu5Gc content of glycoprotein secreted by CHO cells cultivated with medium additives (RP-HPLC of DMB-labelled sialic acids)
Assay type: cell-based, Chinese hamster
Settings: NAcMan 5 mM in fermentation medium, darbepoetin alfa
From the text: Recombinant CHO cells expressing high titres of the glycosylated human glycoproteins were cultivated in suspension culture using rich in-house standard medium without additives according to the invention. After 2 weeks of passages, the cells were first harvested and subsequently inoculated into the same medium, however, supplemented with a range of DMSO concentrations from 0.25% to 1.50% (w/v). The effect of DMSO on growth, productivity, degree of sialylation, and Neu5Gc content was studied.
“One factor at the time”-experiments with different DMSO concentrations at 37° C. and 33° C., respectively, were performed at first in an attempt to determine the DMSO concentration and temperature which are best to minimise the Neu5Gc content on the glycoproteins secreted. To study the interaction between the parameters (i) DMSO concentration, (ii) time of DMSO addition, and (iii) time of the temperature shift (from 37° C. to 33° C.), further experiments were performed with the Design-Expert/Design-Ease programme (Stat-Ease, Inc., Minneapolis, Minn., USA) using the response surface method. Parameters (i), (ii), and (iii) were chosen as numeric factors and the axial points were set slightly out of already known ranges in order to cover a wide design space. One replicate on axial points, one replicate on factorial points and 4 centre points were performed. The results were analysed using the Design of Expert (DOE) software (Design-Expert, Version 7.1). The results of the shake flask experiments were confirmed in the Biostat®B bioreactor (Sartorius, B. Braun Biotech International, Germany). Exponentially growing cells were taken from cell culture flasks having a surface area of 225 cm^2 (Corning®Costar®). A Biostat®B bioreactor with a working volume of 5 litres was inoculated with 2×10^5 cells/ml. Cells were cultivated in a batch mode under standard conditions (37° C., pH 7.0, dissolved oxygen concentration (DOT) 50%) in the rich in-house standard medium supplemented with 0.75% (w/v) DMSO.
In order to study the effect of key intermediates of the metabolic pathway leading to the sialylation of the glycoproteins and consequently to the conversion of Neu5Ac to Neu5Gc, a two factorial minimal resolution IV design, which allows for the estimation of the main effects, was established. Said design allowed the determination which of the components NAcMan, NAcGlc, Man, Fru, and Gal has/have an impact on the degree of sialylation and conversion of Neu5Ac to Neu5Gc. To confirm the results from the DOE findings, the production medium was enriched with 8.75 mM NAcMan and 8.75 mM NAcGlc in combination with manganese (Mn^2+) salts in different concentrations, e.g., in the concentrations mentioned earlier in this application.
At the end of the batch culture the cells were removed. The glycoproteins were purified from the remaining harvests by means of immuno-affinity chromatography. Briefly, up to 2 mg of each of the glycoproteins per ml of the chromatographic resin (20-500 ml of the harvest) were loaded onto the column. Elution of the glycoproteins was performed with 0.1 M Na-phosphate buffer, pH 2.5. By adding 1 M Na-phosphate buffer, pH 7.5 (made up by a combination of Na2H-phosphate and NaH2-phosphate), the pH of the eluate was immediately adjusted to 7 and then stored for further analysis at below −60° C.
Sialic acids (Neu5Gc, Neu5Ac, Neu-5,7Ac2, Neu5Gc9Ac, Neu-5,9Ac2, Neu-5,8,9Ac3) were differentiated using highly sensitive RP-HPLC. Enzymatic desialylation with neuraminidase (a2-3,6,8,9-neuraminidase (Sialidase) from Arthrobacter ureafaciens, Roche, USA) released sialic acids. The released sialic acids were labelled with the fluorescent dye 1,2-diamino-4,5-methylenedioxybenzene (DMB). DMB-labelling is non-selective and therefore provides a pool of labelled sialic acid derivates in stoichiometric amounts. Derivates of the DMB-labelled sialic acids were separated on an RP-HPLC column using isocratic elution. […]

Row | Molecule | content of Neu5Gc
1 | CC(=O)N[C@@H]1C(O)O[C@H](CO)[C@@H](O)[C@@H]1O (stereo partly drawn) [NAcMan, N-acetylmannosamine] | about 0.5%

Test system: chickens
Assay: not given
Settings: rhEPO 1% Neu5Gc, fetuin 7% Neu5Gc, GM3 all Neu5Ac converted into Neu5Gc; cited from earlier work

Row | Molecule | titre of antibodies against Neu5Gc in immunised chickens
2 | fetuin: glycoprotein with a content of Neu5Gc amounting to 7% | a significant titre of antibodies against Neu5Gc
3 | rhEPO: recombinant human erythropoietin produced by Chinese hamster ovary (CHO) cells | did not produce a significant titre

Target: T1, CMP-Neu5Ac hydroxylase (Mus musculus, UniProt Q61419)
T1 sequence (Q61419 5-577): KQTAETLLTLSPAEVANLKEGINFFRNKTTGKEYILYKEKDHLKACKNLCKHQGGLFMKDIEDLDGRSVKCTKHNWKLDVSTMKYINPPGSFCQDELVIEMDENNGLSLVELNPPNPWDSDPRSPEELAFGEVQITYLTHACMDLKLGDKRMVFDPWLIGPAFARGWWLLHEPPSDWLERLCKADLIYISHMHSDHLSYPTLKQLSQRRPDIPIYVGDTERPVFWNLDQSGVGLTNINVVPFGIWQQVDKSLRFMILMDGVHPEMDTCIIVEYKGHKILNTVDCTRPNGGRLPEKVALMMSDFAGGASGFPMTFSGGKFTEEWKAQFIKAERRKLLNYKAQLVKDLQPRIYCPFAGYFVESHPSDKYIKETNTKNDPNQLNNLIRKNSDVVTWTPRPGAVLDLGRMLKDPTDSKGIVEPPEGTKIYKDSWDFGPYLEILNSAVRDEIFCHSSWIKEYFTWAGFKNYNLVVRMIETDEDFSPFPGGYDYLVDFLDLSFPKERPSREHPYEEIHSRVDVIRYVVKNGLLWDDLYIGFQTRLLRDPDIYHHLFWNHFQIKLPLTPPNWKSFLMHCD
Assay: not given
Parameters: concentration or dose not given beside the values
Settings: in vitro; cited from earlier work

Row | Molecule | inhibition of CMP-Neu5Ac hydroxylase [%]
4 | [Co+2] [Co^2+] | 50
5 | [Cu+2] [Cu^2+] | 80
6 | O=C(O)CN(CCN(CC(=O)O)CC(=O)O)CC(=O)O [EDTA] | 60
7 | [Mn+2] [Mn^2+] | 50
8 | [Ni+3] [Ni^3+] | 50
9 | [Zn+2] [Zn^2+] | 30
10 | O=S(=O)([O-])c1ccc(-c2nnc(-c3ccccn3)nc2-c2ccc(S(=O)(=O)[O-])cc2)cc1.[Na+].[Na+] [ferozzine] | 25
11 | c1cnc2c(c1)ccc1cccnc12 [phenanthreoline] | 25
12 | O=S(=O)(O)c1cc(O)c(O)c(S(=O)(=O)O)c1 [tiron] | 100
